Experiments:
Experiment in all cases: relative viability (nuclei count vs DMSO), 5 days (fraction); higher = more cells survive
[1] = compound: CN(c1ncccc1CNc1nc(Nc2ccc3c(c2)CC(=O)N3)ncc1C(F)(F)F)S(C)(=O)=O + CCNC(=O)c1noc(-c2cc(C(C)C)c(O)cc2O)c1-c1ccc(CN2CCOCC2)cc1 [Luminespib] (partner 0.01 µM)
Method in brief: (§1)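 Lung cancer cell lines in 1536-well plates got either a single drug or a fixed anchor-drug dose together with five library-drug doses (not always all listed) in √10 steps, by pin tool, on the day after seeding. Nuclei were counted after 5 days, and relative viability is the treated-to-vehicle ratio of nuclei counts. Values are medians of duplicate plates.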

[2] = compound: CN(c1ncccc1CNc1nc(Nc2ccc3c(c2)CC(=O)N3)ncc1C(F)(F)F)S(C)(=O)=O + CS(=O)(=O)CCNCc1ccc(-c2ccc3ncnc(Nc4ccc(OCc5cccc(F)c5)c(Cl)c4)c3c2)o1 [Lapatinib] (partner 2 µM)
Method in brief: as §1

[3] = compound: CN(c1ncccc1CNc1nc(Nc2ccc3c(c2)CC(=O)N3)ncc1C(F)(F)F)S(C)(=O)=O + Nc1ncn([C@H]2C[C@H](O)[C@@H](CO)O2)c(=O)n1 [Decitabine] (partner 2 µM)
Method in brief: as §1

[4] = compound: CN(c1ncccc1CNc1nc(Nc2ccc3c(c2)CC(=O)N3)ncc1C(F)(F)F)S(C)(=O)=O + O=C(c1cc(Cc2n[nH]c(=O)c3ccccc23)ccc1F)N1CCN(C(=O)C2CC2)CC1 [Olaparib] (partner 8 µM)
Method in brief: as §1

Row | Cell Line | relative viability ([1]; first compound 0.01 µM) | relative viability ([1]; first compound 0.03162 µM) | relative viability ([1]; first compound 0.1 µM) | relative viability ([1]; first compound 0.3162 µM) | relative viability ([1]; first compound 1 µM) | relative viability ([2]; first compound 0.01 µM) | relative viability ([2]; first compound 0.03162 µM) | relative viability ([2]; first compound 0.1 µM) | relative viability ([2]; first compound 0.3162 µM) | relative viability ([2]; first compound 1 µM) | relative viability ([3]; first compound 0.01 µM) | relative viability ([3]; first compound 0.03162 µM) | relative viability ([3]; first compound 0.1 µM) | relative viability ([3]; first compound 0.3162 µM) | relative viability ([3]; first compound 1 µM) | relative viability ([4]; first compound 0.01 µM) | relative viability ([4]; first compound 0.03162 µM) | relative viability ([4]; first compound 0.1 µM) | relative viability ([4]; first compound 0.3162 µM) | relative viability ([4]; first compound 1 µM)
1 | COR-L23 | 0.622 | 1 | 0.656 | 0.734 | 0.41 | 0.924 | 1.16 | 0.92 | 0.883 | 0.628 | 0.417 | 0.493 | 0.44 | 0.503 | 0.399 | 0.382 | 0.344 | 0.33 | 0.305 | 0.278
2 | NCI-H1944 | 0.779 | 0.926 | 0.818 | 0.732 | 0.828 | 0.815 | 0.898 | 0.782 | 0.869 | 0.792 | 0.448 | 0.474 | 0.467 | 0.432 | 0.445 | 0.402 | 0.421 | 0.416 | 0.436 | 0.42
3 | NCI-H2405 | 0.791 | 0.723 | 0.622 | 0.464 | 0.52 | 1.16 | 1.08 | 0.995 | 1.02 | 0.91 | 0.766 | 0.735 | 0.67 | 0.681 | 0.648 | 0.879 | 0.922 | 0.78 | 0.702 | 0.641
4 | SK-LU-1 | 0.197 | 0.208 | 0.214 | 0.172 | 0.209 | 0.885 | 1.13 | 0.912 | 0.722 | 0.874 | 0.641 | 0.689 | 0.636 | 0.639 | 0.576 | 0.411 | 0.433 | 0.38 | 0.408 | 0.445
5 | EMC-BAC-2 | 1.16 | 1.27 | 1.17 | 1.16 | 0.994 | 0.956 | 0.902 | 0.876 | 0.899 | 0.838 | 0.994 | 1.02 | 0.915 | 0.963 | 0.982 | 0.508 | 0.495 | 0.488 | 0.464 | 0.464
6 | NCI-H1650 | 0.203 | 0.207 | 0.194 | 0.193 | 0.198 | 0.78 | 0.9 | 0.805 | – | 0.592 | 0.502 | 0.474 | 0.513 | 0.426 | 0.47 | 0.753 | 0.783 | 0.784 | 0.672 | 0.675
7 | NCI-H596 | 0.943 | 1.02 | 0.951 | 1.06 | 0.968 | 1.05 | 1.16 | 0.929 | 0.979 | 1.06 | 1.15 | 1.01 | 1.11 | 1.03 | 1.13 | 0.634 | 0.655 | 0.664 | 0.674 | 0.723
8 | LCLC-97TM1 | 0.779 | 0.854 | 0.788 | 0.81 | 0.632 | – | 0.658 | 0.841 | 0.752 | 0.516 | 0.228 | 0.212 | 0.2 | 0.238 | 0.215 | 0.45 | 0.414 | 0.401 | 0.291 | 0.261
9 | H3255 | 1.03 | 0.963 | 0.796 | 0.933 | 0.904 | 0.24 | 0.221 | 0.237 | 0.192 | 0.252 | 0.633 | 0.587 | 0.572 | 0.552 | 0.615 | 0.623 | 0.611 | 0.554 | 0.547 | 0.445
10 | LXF-289 | 0.679 | 0.728 | 0.645 | 0.656 | 0.622 | 0.949 | 0.883 | 0.9 | 0.925 | 0.89 | 0.374 | 0.427 | 0.419 | 0.412 | 0.447 | 1.1 | 1.21 | 1.04 | 1.11 | 1.02
11 | UMC-11 | 0.928 | 0.998 | 0.97 | 1.11 | 0.924 | 1.03 | 1.06 | 0.866 | 0.995 | 0.678 | 0.568 | 0.681 | 0.626 | 0.838 | 0.628 | 0.413 | 0.545 | 0.364 | 0.439 | 0.363
12 | LC-2-ad | 1.22 | 1.05 | 0.967 | 0.98 | 0.845 | 1.12 | 0.958 | 1 | 0.864 | 0.756 | 0.789 | 0.833 | 0.828 | 0.852 | 0.863 | 0.732 | 0.703 | 0.703 | 0.664 | 0.596
13 | SK-MES-1 | 0.782 | 0.813 | 0.809 | 0.788 | 0.673 | 0.456 | 0.456 | 0.473 | 0.422 | 0.474 | 0.441 | 0.467 | 0.465 | 0.36 | 0.363 | 0.718 | 0.76 | 0.731 | 0.538 | 0.499
14 | A-427 | 0.908 | 1.1 | 0.832 | 0.921 | 0.905 | 1.05 | 1.05 | 1 | 1.04 | 1.02 | 0.549 | 0.568 | 0.588 | 0.664 | 0.61 | 0.752 | 0.738 | 0.651 | 0.741 | 0.651

Source: the supplement of paper PMC10307832
